23 molecules from patent US20230012368A1 (Hoffmann-La Roche Inc., priority 2018, published 2023) can be followed below.

Molecules are shown by their SMILES. Where a name gives a salt, the structure may show the parent alone.

For one assay, the system named is Acinetobacter baumannii ATCC 17978. The assay can be described thus: Antimicrobial susceptibility testing: 90% growth inhibitory concentration (IC90) determination. It counts as cell-based. As to conditions: 90% growth inhibitory concentration; Acinetobacter baumannii ATCC17978; Iso-Sensitest broth, OD 600 nm over 16h; read-out: ATCC17978 IC90. In outline: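 Growth of the Acinetobacter baumannii strain was followed by optical density at 600 nm every 20 minutes for 16h at 35±2° C. Inoculum was ~5×10^(5) CFU/ml in Iso-Sensitest medium, with twofold compound dilutions (e.g. 50 to 0.097 μM final). The 90% inhibitory concentration was derived in log-phase growth.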
The term IC90 denotes the point of the concentration-response curve where the effect stands at 90%. Consider `Cc1cc(Nc2nccn3c(-c4ccc(OCC#N)c(F)c4F)cnc23)ccc1C(=O)NCCNC(=O)[C@@H]1CCNC[C@@H]1O` [Example 451, (3R,4R)-N-[2-[[4-[[3-[4-(cyanomethoxy)-2,3-difluoro-phenyl]imidazo[1,2-a]pyrazin-8-yl]amino]-2-methyl-benzoyl]amino]ethyl]-3-hydroxy-piperidine-4-carboxamide; formic acid], for which the IC90 came out at 760 nM.
The same measure, in the same setting: in the case of `CCc1cc(Nc2nccn3c(-c4ccc(OC)c(F)c4F)cnc23)ccc1C(=O)NCCCCC(=O)NC[C@H]1O[C@H](O[C@@H]2[C@@H](O)[C@H](O[C@H]3O[C@H](CN)[C@@H](O)[C@H](O)[C@H]3O)[C@@H](N)C[C@H]2NC(=O)[C@@H](O)CCN)[C@H](O)[C@@H](N)[C@@H]1O` [Example 454, trifluoroacetate] it was 970 nM.

Still in this assay, the particulars now being: Acinetobacter baumannii, ATCC17978, 16 h, 90% growth inhibitory concentration; Acinetobacter baumannii ATCC17978; Iso-Sensitest broth, OD 600 nm over 16h; read-out: ATCC17978 IC90.
`Cc1cc(Nc2nccn3c(-c4ccc(OC(F)F)cc4)cnc23)ccc1C(=O)N(C)CCC1CCN(CCCC(=O)O)CC1` [Example 443, 4-(4-(2-(4-((3-(4-(difluoromethoxy)phenyl)im-idazo[1,2-a]pyrazin-8-yl)amino)-N,2-dimethylbenzamido)ethyl)piperidin-1-yl)butanoic acid hydrochloride]: the IC90 was 760 nM.
Still for that read-out and setting: in the case of `CCc1cc(Nc2nccn3c(-c4ccc(OC)c(F)c4F)cnc23)ccc1C(=O)NCCN1CCN(CCCC(=O)O)CC1` [Example 444, 4-(4-(2-(4-((3-(2,3-difluoro-4-methoxyphenyl)imidazo[1,2-a]pyrazin-8-yl)amino)-2-ethylbenzamido)ethyl)pipera-zin-1-yl)butanoic acid] it was 320 nM; in that of `CCc1cc(Nc2nccn3c(-c4ccc(Oc5nccc(C)n5)c(F)c4F)cnc23)ccc1C(=O)NCCNC(=O)[C@@H](N)CCNC(=N)N` [Example 445, (S)-N-(2-(2-amino-4-guanidinobutanamido)ethyl)-4-((3-(2,3-difluoro-4-((4-methylpyrimidin-2-yl)oxy)phenyl)imidazo[1,2-a]pyrazin-8-yl)amino)-2-ethylbenzamide formiate 1:2], 380 nM.
The same measure, in the same setting: in the case of `CCc1cc(Nc2nccn3c(-c4ccc(OC)c(F)c4F)cnc23)ccc1C(=O)NCC(=O)NCCN1CCC1` [Example 446, N-[2-[2-(azetidin-1-yl)ethylamino]-2-oxo-ethyl]-4-[[3-(2,3-difluoro-4-methoxy-phenyl)imidazo[1,2-a]pyrazin-8-yl]amino]-2-ethyl-benzamide; formic acid] it was 300 nM; in that of `CCc1cc(Nc2nccn3c(-c4ccc(Oc5ccc(OC)cn5)c(F)c4F)cnc23)ccc1C(=O)NCCNC(=O)[C@H](N)CCCNC(=N)N` [Example 447, N-[2-[[(2R)-2-amino-5-guanidino-pentanoyl]amino]ethyl]-4-[[3-[2,3-difluoro-4-[(5-methoxy-2-pyridyl)oxy]phenyl]imidazo [1,2-a]pyrazin-8-yl]amino]-2-ethyl-benzamide; formic acid], 630 nM.
Regarding `CCc1cc(Nc2nccn3c(-c4ccc(Oc5ccc(OC)cn5)c(F)c4F)cnc23)ccc1C(=O)NCCNC(=O)CCN` [Example 448, N-[2-(3-aminopropanoylamino)ethyl]-4-[[3-[2,3-difluoro-4-[(5-methoxy-2-pyridyl)oxy]phenyl]imidazo [1,2-a]pyrazin-8-yl]amino]-2-ethyl-benzamide; formic acid], the 90% effect concentration (IC90) came to 470 nM.
The same measure, in the same setting: the value for `CCc1cc(Nc2nccn3c(-c4ccc(Oc5ccc(OC)cn5)c(F)c4F)cnc23)ccc1C(=O)NCCNC(=O)[C@@H](N)CCNC(=N)N` [Example 449, N-[2-[[(2S)-2-amino-4-guanidino-butanoyl]amino]ethyl]-4-[[3-[2,3-difluoro-4-[(5-methoxy-2-pyridyl)oxy]phenyl]imidazo [1,2-a]pyrazin-8-yl]amino]-2-ethyl-benzamide; formic acid] was 530 nM; that for `CCc1cc(Nc2nccn3c(-c4ccc(Oc5ccc(OC)cn5)c(F)c4F)cnc23)ccc1C(=O)NCCNC(=O)[C@H](N)CCNC(=N)N` [Example 450, N-[2-[[(2R)-2-amino-4-guanidino-butanoyl]amino]ethyl]-4-[[3-[2,3-difluoro-4-[(5-methoxy-2-pyridyl)oxy]phenyl]imidazo [1,2-a]pyrazin-8-yl]amino]-2-ethyl-benzamide] was 560 nM; that for `CCc1cc(Nc2nccn3c(-c4ccc(OC)c(F)c4F)cnc23)ccc1C(=O)N[C@@H](C)CNC(=O)[C@@H](N)CCCCN` [Example 453, N-[(1S)-2-[[(2S)-2,6-diaminohexanoyl]amino]-1-methyl-ethyl]-4-[[3-(2,3-difluoro-4-methoxy-phenyl)imidazo[1,2-a]pyrazin-8-yl]amino]-2-ethyl-benzamide] was 320 nM.
On to `CCc1cc(Nc2nccn3c(-c4ccc(Oc5nccc(C)n5)c(F)c4F)cnc23)ccc1C(=O)N[C@@H](C)CNC(=O)[C@@H](N)CCNC(=N)N` [Example 455, N-((S)-1-((S)-2-amino-4-guanidinobutanamido)propan-2-yl)-4-((3-(2,3-difluoro-4-((4-methylpyrimidin-2-yl)oxy)phenyl)imidazo[1,2-a]pyrazin-8-yl)amino)-2-ethylbenzamide formiate 1:2], for which the IC90 amounted to 720 nM.
Still for that read-out and setting: the value for `CCc1cc(Nc2nccn3c(-c4ccc(Oc5ccccn5)c(F)c4F)cnc23)ccc1C(=O)N[C@@H](C)CNC(=O)[C@@H](N)CCNC(=N)N` [Example 456, N-[(1S)-2-[[(2S)-2-amino-4-guanidino-butanoyl]amino]-1-methyl-ethyl]-4-[[3-[2,3-difluoro-4-(2-pyridyloxy)phenyl]imidazo [1,2-a]pyrazin-8-yl]amino]-2-ethyl-benzamide; formic acid] was 710 nM; that for `CCc1cc(Nc2nccn3c(-c4ccc(Oc5ccncn5)c(F)c4F)cnc23)ccc1C(=O)N[C@@H](C)CNC(=O)[C@@H](N)CCNC(=N)N` [Example 457, N-[(1S)-2-[[(2S)-2-amino-4-guanidino-butanoyl]amino]-1-methyl-ethyl]-4-[[3-(2,3-difluoro-4-pyrimidin-4-yloxy-phenyl)imidazo[1,2-a]pyrazin-8-yl]amino]-2-ethyl-benzamide; formic acid] was 980 nM; that for `CCc1cc(Nc2nccn3c(-c4ccc(Oc5ccncn5)c(F)c4F)cnc23)ccc1C(=O)N[C@@H](C)CNC(=O)[C@H](N)CCNC(=N)N` [Example 458, N-[(1S)-2-[[(2R)-2-amino-4-guanidino-butanoyl]amino]-1-methyl-ethyl]-4-[[3-(2,3-difluoro-4-pyrimidin-4-yloxy-phenyl)imidazo[1,2-a]pyrazin-8-yl]amino]-2-ethyl-benzamide; formic acid] was 660 nM.
Regarding `COc1ccc(-c2cnc3c(Nc4ccc(C(=O)NCCNC(=O)[C@@H]5CCNC[C@@H]5O)c(C)c4)nccn23)c(F)c1F` [Example 459, (3R,4R)-N-[2-[[4-[[3-(2,3-difluoro-4-methoxy-phenyl)imidazo[1,2-a]pyrazin-8-yl]amino]-2-methyl-benzoyl]amino]ethyl]-3-hydroxy-piperidine-4-carboxamide; formic acid], the IC90 worked out at 940 nM.
Same read-out and setting: the value for `C#CCOc1ccc(-c2cnc3c(Nc4ccc(C(=O)N[C@H](C)CN)c(CC)c4)nccn23)c(F)c1F` [Example 460, N-[(1R)-2-amino-1-methyl-ethyl]-4-[[3-(2,3-difluoro-4-prop-2-ynoxy-phenyl)imidazo[1,2-a]pyrazin-8-yl]amino]-2-ethyl-benzamide] was 480 nM.
Same read-out and setting: the value for `CCc1cc(Nc2nccn3c(-c4ccc(Oc5nccc(OC)n5)c(F)c4F)cnc23)ccc1C(=O)N[C@@H](C)CN` [Example 462, (S)-N-(1-aminopropan-2-yl)-4-((3-(2,3-difluoro-4-((4-methoxypyrimidin-2-yl)oxy)phenyl)imidazo[1,2-a]pyrazin-8-yl)amino)-2-ethylbenzamide] was 520 nM; that for `CCc1cc(Nc2nccn3c(-c4ccc(Oc5cc(OC)ncn5)c(F)c4F)cnc23)ccc1C(=O)N[C@@H](C)CN` [Example 463, (S)-N-(1-aminopropan-2-yl)-4-((3-(2,3-difluoro-4-((6-methoxypyrimidin-4-yl)oxy)phenyl)imidazo[1,2-a]pyrazin-8-yl)amino)-2-ethylbenzamide] was 840 nM; that for `CCc1cc(Nc2nccn3c(-c4ccc(OC)c(F)c4F)cnc23)ccc1C(=O)NCC(=O)N1CCN[C@H](CO)C1` [Example 464, 4-[[3-(2,3-difluoro-4-methoxy-phenyl)imidazo[1,2-a]pyrazin-8-yl]amino]-2-ethyl-N-[2-[(3S)-3-(hydroxymethyl)piperazin-1-yl]-2-oxo-ethyl]benzamide] was 240 nM.
On the same count and under the same terms, the value for `CCc1cc(Nc2nccn3c(-c4ccc(OC)c(F)c4F)cnc23)ccc1C(=O)N[C@H](C)CNC(=O)[C@@H](N)CCCCN` [Example 465, N-[(1R)-2-[[(2S)-2,6-diaminohexanoyl]amino]-1-methyl-ethyl]-4-[[3-(2,3-difluoro-4-methoxy-phenyl)imidazo[1,2-a]pyrazin-8-yl]amino]-2-ethyl-benzamide] was 300 nM; that for `CCc1cc(Nc2nccn3c(-c4ccc(Oc5nccc(OC)n5)c(F)c4F)cnc23)ccc1C(=O)NCCN` [Example 466, N-(2-aminoethyl)-4-((3-(2,3-difluoro-4-((4-methoxypyrimidin-2-yl)oxy)phenyl)imidazo[1,2-a]pyrazin-8-yl)amino)-2-ethylbenzamide] was 560 nM.
Regarding `COc1ccc(-c2cnc3c(Nc4cc(C)c(C(=O)NCCN)c(F)c4)nccn23)c(F)c1F` [Example 467, N-(2-aminoethyl)-4-((3-(2,3-difluoro-4-methoxyphenyl)imidazo[1,2-a]pyrazin-8-yl)amino)-2-fluoro-6-methylbenzamide], the concentration for an effect of 90% (IC90) came to 630 nM.
